Results on three compounds are retold here after PubChem BioAssay (NCI).

Where “and” joins values, the source holds several entries; their conditions need not be identical. Identical values can stand only once.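 In this assay, cells in 96-well plates receive the compound at five concentrations for 48 hours. Endpoints are linearly interpolated between the surrounding concentrations. The concentration for 50% growth inhibition is given as GI50. TGI is the concentration that stops growth completely.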

Some test systems named below: EKVX NSCLC; RPMI-8226 leukemia; UACC-257 melanoma; KM12 colon; CCRF-CEM leukemia; PC-3 prostate; OVCAR-4 ovarian; BT-549 breast; U251 CNS; SNB-19 CNS.
Test in all cases: NCI-60 cell line screen, 48 h

In the case of `CNC(=O)c1cc(Oc2ccc(NC(=O)Nc3cc(C(C)(C)C)nn3-c3ccc4ncccc4c3)c(F)c2)ccn1`, the GI50 was 2720 nM with EKVX NSCLC; 2400 nM and 2500 nM in the experiment with RPMI-8226 leukemia; 477 nM and 440 nM in the experiment with UACC-257 melanoma; 42.2 nM and 43.3 nM in the experiment with KM12 colon; 2350 nM and 2570 nM with CCRF-CEM leukemia; 1830 nM and 1680 nM in the experiment on PC-3 prostate. Further, the GI50 was 2380 nM and 2490 nM with OVCAR-4 ovarian; 1080 nM and 2270 nM in the experiment with BT-549 breast; 2720 nM and 2330 nM in the experiment on U251 CNS; 3.1 µM and 3.09 µM in the experiment with SNB-19 CNS. The TGI in the experiment with EKVX NSCLC was 8.61 µM; in the experiment with RPMI-8226 leukemia it was 6.51 µM and 5.91 µM; with UACC-257 melanoma, 5.56 µM and 3.72 µM; in the experiment on KM12 colon, 5.19 µM and 5.41 µM; with CCRF-CEM leukemia, 8.36 µM and > 31.6 µM; in the experiment with PC-3 prostate, 6.78 µM and 5.17 µM. Also, the TGI with OVCAR-4 ovarian was 7.74 µM and 14.5 µM; in the experiment with BT-549 breast, 4.58 µM and 5.65 µM; with U251 CNS it was 8.87 µM and 7.22 µM; with SNB-19 CNS it was 8.87 µM and 7.98 µM.

In the case of `Fc1ccc(Nc2nc(Nc3ccc(-c4nc5ccccc5[nH]4)cc3)c3cn[nH]c3n2)cc1`, the GI50 is 2500 nM in the experiment with EKVX NSCLC; 2300 nM in the experiment with RPMI-8226 leukemia; 2000 nM with UACC-257 melanoma; 1640 nM in the experiment on KM12 colon; 2630 nM in the experiment with CCRF-CEM leukemia; 2020 nM in the experiment on PC-3 prostate. Further, the GI50 is 1600 nM with OVCAR-4 ovarian, 2360 nM in the experiment on BT-549 breast, 2100 nM in the experiment with U251 CNS and 3.16 µM in the experiment with SNB-19 CNS. Further, the TGI in the experiment with EKVX NSCLC stood at 8.28 µM; in the experiment with RPMI-8226 leukemia, 5.2 µM; with UACC-257 melanoma it was 4.37 µM; with KM12 colon, 3.48 µM; in the experiment with CCRF-CEM leukemia, 6.9 µM; in the experiment with PC-3 prostate, 4.53 µM. Further, the TGI was determined as 3.6 µM in the experiment on OVCAR-4 ovarian, 6.4 µM in the experiment with BT-549 breast, 4.34 µM in the experiment with U251 CNS and 9.61 µM in the experiment on SNB-19 CNS.

Regarding `COc1cc(C2NC(=O)C(C#N)=C(Nc3cccc(C)c3)S2)ccc1O` (stereo not given), the GI50 with EKVX NSCLC, in the experiment with RPMI-8226 leukemia, with UACC-257 melanoma, with KM12 colon, with CCRF-CEM leukemia and in the experiment with PC-3 prostate was > 100000 nM in each case. Moreover, the GI50 with OVCAR-4 ovarian is > 100000 nM; with BT-549 breast, > 100000 nM; in the experiment on U251 CNS, > 100000 nM; in the experiment with SNB-19 CNS, > 100 µM. Besides, the TGI with EKVX NSCLC, with RPMI-8226 leukemia, with UACC-257 melanoma, in the experiment on KM12 colon, with CCRF-CEM leukemia and in the experiment with PC-3 prostate was > 100 µM in each case. Besides, the TGI in the experiment on OVCAR-4 ovarian, in the experiment on BT-549 breast, with U251 CNS and in the experiment with SNB-19 CNS was > 100 µM each time.
